Measurements as given in PubChem BioAssay (NCI).
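Protocol summary: plate cells (96-well), add compound at 5 concentrations, incubate 48 h, interpolate endpoints linearly. Here, GI50 denotes the concentration required for 50% inhibition of growth. TGI: concentration producing complete growth inhibition.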

Tests used:
Experiment in all cases: DTP human tumour cell line panel, 48 h
786-0 renal = system: 786-0 renal
A498 renal = system: A498 renal
A549 NSCLC = system: A549 NSCLC
ACHN renal = system: ACHN renal
COLO 205 colon = system: COLO 205 colon
DU-145 prostate = system: DU-145 prostate
EKVX NSCLC = system: EKVX NSCLC
HCC-2998 colon = system: HCC-2998 colon
HCT-15 colon = system: HCT-15 colon
HL-60(TB) leukemia = system: HL-60(TB) leukemia
HOP-62 NSCLC = system: HOP-62 NSCLC
HOP-92 NSCLC = system: HOP-92 NSCLC
HS 578T breast = system: HS 578T breast
HT29 colon = system: HT29 colon
IGROV1 ovarian = system: IGROV1 ovarian
K-562 leukemia = system: K-562 leukemia
KM12 colon = system: KM12 colon
LOX IMVI melanoma = system: LOX IMVI melanoma
M14 melanoma = system: M14 melanoma
MALME-3M melanoma = system: MALME-3M melanoma
MCF7 breast = system: MCF7 breast
MDA-MB-231 breast = system: MDA-MB-231 breast
MDA-MB-435 = system: MDA-MB-435
MOLT-4 leukemia = system: MOLT-4 leukemia
NCI-H23 lung = system: NCI-H23 lung
NCI-H460 lung = system: NCI-H460 lung
NCI-H522 lung = system: NCI-H522 lung
NCI/ADR-RES ovarian = system: NCI/ADR-RES ovarian
OVCAR-3 ovarian = system: OVCAR-3 ovarian
OVCAR-4 ovarian = system: OVCAR-4 ovarian
OVCAR-5 ovarian = system: OVCAR-5 ovarian
OVCAR-8 ovarian = system: OVCAR-8 ovarian
PC-3 prostate = system: PC-3 prostate
RXF 393 renal = system: RXF 393 renal
SF-268 CNS = system: SF-268 CNS
SF-295 CNS = system: SF-295 CNS
SF-539 CNS = system: SF-539 CNS
SK-MEL-2 melanoma = system: SK-MEL-2 melanoma
SK-MEL-28 melanoma = system: SK-MEL-28 melanoma
SK-MEL-5 melanoma = system: SK-MEL-5 melanoma
SK-OV-3 ovarian = system: SK-OV-3 ovarian
SN12C renal = system: SN12C renal
SNB-19 CNS = system: SNB-19 CNS
SNB-75 CNS = system: SNB-75 CNS
SR leukemia = system: SR leukemia
SW-620 colon = system: SW-620 colon
T-47D breast = system: T-47D breast
TK-10 renal = system: TK-10 renal
U251 CNS = system: U251 CNS
UACC-257 melanoma = system: UACC-257 melanoma
UACC-62 melanoma = system: UACC-62 melanoma
UO-31 renal = system: UO-31 renal

With `COC(=O)CCc1n(Cc2ccc3ccccc3c2)c2ccccc2[n+]1Cc1ccc2ccccc2c1` the GI50 (786-0 renal) was 1.14 µM, the TGI (786-0 renal) was 2.45 µM and the GI50 (A498 renal) was 1.53 µM. The TGI (A498 renal) was 3.45 µM, the GI50 (A549 NSCLC) was 2.92 µM and the TGI (A549 NSCLC) was 11.9 µM. For the same molecule, the GI50 (ACHN renal) was 3.71 µM, the TGI (ACHN renal) was 13.1 µM and the GI50 (COLO 205 colon) was 0.614 µM. It also gave a TGI (COLO 205 colon) of 2.21 µM, a GI50 (DU-145 prostate) of 1.45 µM and a TGI (DU-145 prostate) of 3.34 µM. The GI50 (EKVX NSCLC) was 1.63 µM, the TGI (EKVX NSCLC) was 5.63 µM and the GI50 (HCC-2998 colon) was 0.91 µM. The TGI (HCC-2998 colon) was 2.43 µM, the GI50 (HCT-15 colon) was 2.71 µM and the TGI (HCT-15 colon) was 8.08 µM. For the same molecule, the GI50 (HL-60(TB) leukemia) was 0.207 µM, the TGI (HL-60(TB) leukemia) was 0.799 µM and the GI50 (HOP-62 NSCLC) was 1.66 µM. For the same molecule, the TGI (HOP-62 NSCLC) was 3.46 µM, the GI50 (HOP-92 NSCLC) was 0.152 µM and the TGI (HOP-92 NSCLC) was 1.12 µM. For the same molecule, the GI50 (HS 578T breast) was 1.43 µM, the TGI (HS 578T breast) was 3.47 µM and the GI50 (HT29 colon) was 0.571 µM. The TGI (HT29 colon) was 1.97 µM, the GI50 (IGROV1 ovarian) was 0.441 µM and the TGI (IGROV1 ovarian) was 1.9 µM. The GI50 (K-562 leukemia) was 0.379 µM, the TGI (K-562 leukemia) was 1.63 µM and the GI50 (KM12 colon) was 0.685 µM. It also gave a TGI (KM12 colon) of 2.12 µM, a GI50 (LOX IMVI melanoma) of 0.557 µM and a TGI (LOX IMVI melanoma) of 1.93 µM. It also gave a GI50 (M14 melanoma) of 0.524 µM, a TGI (M14 melanoma) of 2.04 µM and a GI50 (MALME-3M melanoma) of 1.05 µM. For the same molecule, the TGI (MALME-3M melanoma) was 2.63 µM, the GI50 (MCF7 breast) was 0.795 µM and the TGI (MCF7 breast) was 2.34 µM. The GI50 (MDA-MB-231 breast) was 0.682 µM, the TGI (MDA-MB-231 breast) was 2.19 µM and the GI50 (MDA-MB-435) was 0.462 µM. The TGI (MDA-MB-435) was 1.8 µM, the GI50 (MOLT-4 leukemia) was 1.13 µM and the TGI (MOLT-4 leukemia) was 2.98 µM. It also gave a GI50 (NCI-H23 lung) of 0.583 µM, a TGI (NCI-H23 lung) of 2.56 µM and a GI50 (NCI-H460 lung) of 1.18 µM. It also gave a TGI (NCI-H460 lung) of 2.7 µM, a GI50 (NCI-H522 lung) of 0.44 µM and a TGI (NCI-H522 lung) of 1.77 µM. It also gave a GI50 (NCI/ADR-RES ovarian) of 18.7 µM, a TGI (NCI/ADR-RES ovarian) of 65.1 µM and a GI50 (OVCAR-3 ovarian) of 0.682 µM. It also gave a TGI (OVCAR-3 ovarian) of 2.15 µM, a GI50 (OVCAR-4 ovarian) of 0.315 µM and a TGI (OVCAR-4 ovarian) of 1.89 µM. It also gave a GI50 (OVCAR-5 ovarian) of 1.18 µM, a TGI (OVCAR-5 ovarian) of 2.77 µM and a GI50 (OVCAR-8 ovarian) of 1.27 µM. It also gave a TGI (OVCAR-8 ovarian) of 3.02 µM, a GI50 (PC-3 prostate) of 0.402 µM and a TGI (PC-3 prostate) of 1.74 µM. For the same molecule, the GI50 (RXF 393 renal) was 0.874 µM, the TGI (RXF 393 renal) was 2.23 µM and the GI50 (SF-268 CNS) was 1.38 µM. It also gave a TGI (SF-268 CNS) of 2.99 µM, a GI50 (SF-295 CNS) of 1.32 µM and a TGI (SF-295 CNS) of 2.86 µM. The GI50 (SF-539 CNS) was 1.07 µM, the TGI (SF-539 CNS) was 2.45 µM and the GI50 (SK-MEL-2 melanoma) was 1.23 µM. For the same molecule, the TGI (SK-MEL-2 melanoma) was 2.72 µM, the GI50 (SK-MEL-28 melanoma) was 0.8 µM and the TGI (SK-MEL-28 melanoma) was 2.46 µM. For the same molecule, the GI50 (SK-MEL-5 melanoma) was 0.415 µM, the TGI (SK-MEL-5 melanoma) was 1.56 µM and the GI50 (SK-OV-3 ovarian) was 1.89 µM. The TGI (SK-OV-3 ovarian) was 4.85 µM, the GI50 (SN12C renal) was 0.833 µM and the TGI (SN12C renal) was 2.19 µM. The GI50 (SNB-19 CNS) was 0.582 µM, the TGI (SNB-19 CNS) was 1.98 µM and the GI50 (SNB-75 CNS) was 0.93 µM. For the same molecule, the TGI (SNB-75 CNS) was 2.26 µM, the GI50 (SR leukemia) was 0.403 µM and the TGI (SR leukemia) was 2.05 µM. It also gave a GI50 (SW-620 colon) of 1.27 µM, a TGI (SW-620 colon) of 2.85 µM and a GI50 (T-47D breast) of 0.222 µM. It also gave a TGI (T-47D breast) of 2.65 µM, a GI50 (TK-10 renal) of 1.49 µM and a TGI (TK-10 renal) of 2.96 µM. For the same molecule, the GI50 (U251 CNS) was 1.04 µM, the TGI (U251 CNS) was 2.3 µM and the GI50 (UACC-257 melanoma) was 0.549 µM. For the same molecule, the TGI (UACC-257 melanoma) was 2.37 µM, the GI50 (UACC-62 melanoma) was 0.361 µM and the TGI (UACC-62 melanoma) was 1.59 µM. The GI50 (UO-31 renal) was 2.25 µM and the TGI (UO-31 renal) was 10.2 µM.
